A value given as a limit tells only on which side of the number the result lay.

As a reminder, the Ki is a measure of affinity in units of concentration, obtained from inhibition or displacement.

The first experiment concerns the target HIV-1 protease (Human immunodeficiency virus type 1 group M subtype B, UniProt P04585). Put plainly: Inhibition constants against HIV-1 protease, method of Pennington et al. Type of experiment: biochemical.
Settings: not given
As to `COc1ccc(S(=O)(=O)N(CC2CCCC2)C[C@@H](O)CN(CCc2ccccc2)C(=O)Oc2ccccc2)cc1` [Compound 1022], affinity was put at a Ki of 170 nM.

The experiment is the same for the next values; noted with them: HIV-1 protease; method of Pennington et al.; read-out: Ki.
On to `Nc1ccc(S(=O)(=O)N(CC2CCCC2)C[C@@H](O)CN(CCc2ccccc2)C(=O)O[C@H]2CCOC2)cc1` [Compound 1008], for which the Ki came to 260 nM.
Still for that read-out and setting: as for `COc1ccc(S(=O)(=O)N(CC2CCCC2)C[C@@H](O)CN(CCc2ccccc2)C(C)=O)cc1` [Compound 1047], the figure is 1600 nM.
On to `CCCN(CC(=O)c1ccccc1)C[C@H](O)CN(CC1CCCC1)S(=O)(=O)c1ccc(OC)cc1` [Compound 1029], for which the Ki amounted to 3500 nM.
Turning to `COc1ccc(S(=O)(=O)N(CC(C)C)C[C@@H](O)CCN(CCc2ccccc2)C(=O)OC2COC3OCCC23)cc1` (stereo partly drawn) [Compound 1036], the Ki was 8000 nM.
On to `COc1ccc(S(=O)(=O)N(CC(C)C)C[C@@H](O)CCN2CCCC[C@H]2C(=O)NC(C)(C)C)cc1` [Compound 1033], for which the Ki amounted to 1600 nM.
With `COc1ccc(S(=O)(=O)N(CC2CCCC2)C[C@@H](O)CN(CC(C)C)C(=O)O[C@H]2CCOC2)cc1` [Compound 1004], the Ki is 1300 nM.
Regarding `COc1ccc(S(=O)(=O)N(CC(C)C)C[C@H](O)CCN(CCc2ccccc2)C(=O)O[C@H]2CCOC2)cc1` [Compound 1038], the Ki is greater than 10000 nM.
Same read-out and setting: then `COc1ccc(S(=O)(=O)N(CC[C@H](O)CN(CC(C)C)S(=O)(=O)c2ccc(OC)cc2)CC(C)C)cc1` [XLIVa], with 400 nM.
As for `COc1ccc(S(=O)(=O)N(CC(C)C)C[C@@H](O)CCN(CCc2ccccc2)C(=O)O[C@H]2CCOC2)cc1` [Compound 1037], the Ki is greater than 10000 nM.
For the compound `COc1ccc(S(=O)(=O)N(CC(C)C)C[C@@H](O)CC(=O)N2CCN(C(=O)OCc3ccccc3)C[C@H]2C(=O)NC(C)(C)C)cc1` [Compound 1031], the Ki came to 1400 nM.
On the same count and under the same terms, then `COc1ccc(S(=O)(=O)N(CC(C)C)C[C@@H](O)CCN(CC2CCCC2)S(=O)(=O)c2cccc(N)c2)cc1` [Compound 1041], with 270 nM; and `COc1ccc(S(=O)(=O)N(CC(C)C)C[C@@H](O)CCN(CC(C)C)S(=O)(=O)N(C)C)cc1` [Compound 1034], with 1100 nM.
Turning to `COc1ccc(S(=O)(=O)N(CC2CCCC2)C[C@@H](O)CN(CCc2ccc(O)c(O)c2)C(=O)O[C@H]2CCOC2)cc1` [Compound 1017], the Ki is 110 nM.
Take `COc1ccc(S(=O)(=O)N(CC(C)C)C[C@@H](O)CC(Cc2ccccc2)C(=O)N[C@H]2c3ccccc3C[C@H]2O)cc1` (stereo partly drawn) [LII]: the Ki amounted to 11 nM.
Same read-out and setting: as for `COc1ccc(S(=O)(=O)N(CCc2ccccc2)CC[C@H](O)CN(CC(C)C)S(=O)(=O)c2ccc(OC)cc2)cc1` [Compound 1035], the figure is 3600 nM; as for `COc1ccc(S(=O)(=O)N(CC(O)CN(CCc2ccccc2)C(=O)[C@H](NC(=O)OCc2ccccc2)C(C)C)CC2CCCC2)cc1` (stereo partly drawn) [Compound 1027], 7 nM.
As to `COc1ccc(S(=O)(=O)N(CC2CCCC2)C[C@@H](O)CN(CCc2ccccc2)CC(=O)c2ccccc2)cc1` [Compound 1028], the Ki was 800 nM.
As for `COc1ccc(S(=O)(=O)N(CC[C@H](O)CN2CCN(C(=O)OCc3ccccc3)C[C@H]2C(=O)NC(C)(C)C)CC(C)C)cc1` [LXXVI], the Ki was 2700 nM.
Same read-out and setting: as for `COc1ccc(S(=O)(=O)N(CC2CCCC2)C[C@H](O)CN(CCc2ccccc2)C(=O)O[C@H]2CCOC2)cc1` [Compound 1000], the figure is 100 nM; as for `CC(C)CN(C[C@@H](O)CN(CCc1ccccc1)C(=O)O[C@H]1CCOC1)S(=O)(=O)c1cccc(N)c1` [Compound 1012], 200 nM; as for `COc1ccc(S(=O)(=O)N(CC2CCCC2)C[C@@H](O)CN(CCC(C)C)C(=O)O[C@H]2CCOC2)cc1` [Compound 1003], 1200 nM.
With `COc1ccc(S(=O)(=O)N(CC(C)C)C[C@@H](O)CCN(CC2CCCC2)C(=O)O[C@H]2CCOC2)cc1` [Compound 1039], the inhibition constant Ki was greater than 3000 nM.
Same read-out and setting: as for `COc1ccc(S(=O)(=O)N(CC2CCCC2)C[C@@H](O)CN(CCC2CCCCC2)C(=O)O[C@H]2CCOC2)cc1` [Compound 1011], the figure is 110 nM; as for `CC(C)CN(C[C@@H](O)CCN(CC1CCCC1)S(=O)(=O)c1ccc(O)cc1)S(=O)(=O)c1ccc(O)cc1` [XLV], 160 nM; as for `COc1ccc(S(=O)(=O)N(CC2CCCC2)C[C@@H](O)CN(CCc2cccnc2)C(=O)OCc2cccnc2)cc1` [Compound 1025], 270 nM.
With `COc1ccc(S(=O)(=O)N(CC2CCCC2)C[C@@H](O)CN(CCc2ccccc2)C(=O)c2ccccc2)cc1` [Compound 1026], the Ki worked out at 20 nM.
The same measure, in the same setting: as for `COc1ccc(S(=O)(=O)N(CC(C)C)CC(O)CNc2ccccc2C(=O)NC(C)(C)C)cc1` (stereo not drawn) [Compound 1002], the figure is 16000 nM.
On to `COc1ccc(S(=O)(=O)N(CC[C@H](O)CN2CCCC[C@H]2C(=O)NC(C)(C)C)CC(C)C)cc1` [XLVIII], for which the Ki worked out at 3300 nM.
The same measure, in the same setting: then `COc1ccc(S(=O)(=O)N(CC2CCCC2)C[C@@H](O)CN(CCc2ccc(O)cc2)C(=O)O[C@H]2CCOC2)cc1` [Compound 1016], with 75 nM; and `COc1ccc(S(=O)(=O)N(CC2CCCC2)C[C@@H](O)CN(CCCc2ccccc2)C(=O)O[C@H]2CCOC2)cc1` [Compound 1006], with 470 nM; and `Nc1cccc(S(=O)(=O)N(CC2CCCC2)C[C@@H](O)CN(CCc2ccccc2)C(=O)OC2COCOC2)c1` [Compound 1014], with 130 nM.
Same read-out and setting: then `O=C(O[C@H]1CCOC1)N(CCc1ccccc1)C[C@H](O)CN(CC1CCCC1)S(=O)(=O)c1ccc(O)cc1` [Compound 1007], with 35 nM; and `Nc1cccc(S(=O)(=O)N(CC2CCCC2)C[C@@H](O)CN(CCc2ccccc2)C(=O)O[C@@H]2COC3OCCC32)c1` (stereo partly drawn) [Compound 1013], with 50 nM; and `COc1ccc(S(=O)(=O)N(CC(C)C)C[C@@H](O)CC(Cc2ccccc2)C(=O)NCC(C)C)cc1` (stereo partly drawn) [LI], with 5000 nM.
For the compound `Nc1cccc(S(=O)(=O)N(CC2CCCC2)C[C@@H](O)CN(CCc2ccccc2)C(=O)O[C@H]2CCOC2)c1` [Compound 1009], the Ki amounted to 120 nM.
Same read-out and setting: then `COc1ccc(S(=O)(=O)N(CC(O)CN2CC(c3ccccc3)c3ccccc3C2=O)CC2CCCC2)cc1` (stereo not drawn) [Compound 1048], with 3300 nM.
On the same count and under the same terms, as for `O=C(OCc1cccnc1)N(CCc1ccccc1)C[C@H](O)CN(CC1CCCC1)S(=O)(=O)c1ccccc1` [Compound 1023], the figure is 52 nM.
Still for that read-out and setting: as for `COc1ccc(S(=O)(=O)N(CC2CCCC2)C[C@@H](O)CN(CCc2ccccc2)C(=O)OCc2ccccc2)cc1` [Compound 1019], the figure is 20 nM.
For `COc1ccc(S(=O)(=O)N(CC(C)C)C[C@H](O)CCN(CC2CCCC2)C(=O)O[C@H]2CCOC2)cc1` [Compound 1040], the inhibition constant Ki is greater than 10000 nM.
Same read-out and setting: as for `COc1ccc(S(=O)(=O)N(CC2CCCC2)C[C@@H](O)CN(CCc2ccccc2)C(=O)c2cccc(O)c2C)cc1` [Compound 1024], the figure is 66 nM; as for `COc1ccc(S(=O)(=O)N(CC2CCCC2)C[C@@H](O)CN(CCc2ccccc2)C(=O)Cc2ccccc2)cc1` [Compound 1020], 170 nM; as for `Nc1cccc(S(=O)(=O)N(CC2CCCC2)C[C@@H](O)CN(CCc2ccccc2)C(=O)c2cccnc2)c1` [Compound 1044], 220 nM.
Still for that read-out and setting: then `C=CCOC(=O)N(CCc1ccccc1)C[C@H](O)CN(CC1CCCC1)S(=O)(=O)c1ccc(OC)cc1` [Compound 1021], with 70 nM; and `COc1ccc(S(=O)(=O)N(CC(O)CN2C(=O)OC[C@@H]2Cc2ccccc2)CC2CCCC2)cc1` (stereo partly drawn) [Compound 1046], with 1200 nM.
On the same count and under the same terms, then `Nc1cccc(S(=O)(=O)N(CC2CCCC2)C[C@@H](O)CN(CCc2ccccc2)C(=O)c2ccncc2)c1` [Compound 1045], with 14 nM.
Regarding `COc1ccc(S(=O)(=O)N(CC[C@H](O)CN(CC(C)C)S(=O)(=O)c2ccc(OC)cc2)CC2CCCC2)cc1` [LVa], the Ki worked out at 167 nM.

The experiment is the same for the next values; noted with them: read-out: Ki.
Consider `COc1ccc(S(=O)(=O)N(CC2CCCC2)C[C@@H](O)CN(CCc2ccccc2)C(=O)O[C@H]2CCOC2)cc1` [Compound 1001], for which the Ki came out at 30 nM.

Source of the values: patent publication US6127372A, “Sulfonamide inhibitors of aspartyl protease” (Vertex Pharmaceuticals, Incorporated, priority 1996, dated 2000).
